According to ChEMBL document CHEMBL1201862, “PubChem BioAssay data set” (2004):
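All cell lines were grown in 96-well plates and treated with compound for 48 hours. Abbreviation: GI50, concentration required for 50% inhibition of growth.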 Calls of active or inactive are those of the source. No stated cut-off is given here; in the data, active = GI50 up to about 1.1 µM and inactive = higher.

Assays:
Test in all cases: NCI tumour cell line growth inhibition, 48 h
SW-620 = test system: SW-620
NCI-H522 = test system: NCI-H522
MOLT-4 = test system: MOLT-4
COLO 205 = test system: COLO 205
HL-60 = test system: HL-60
LXFL 529 = test system: LXFL 529
SK-MEL-28 = test system: SK-MEL-28
LOX IMVI = test system: LOX IMVI
M14 = test system: M14
TK-10 = test system: TK-10
SN12C = test system: SN12C
M19-MEL = test system: M19-MEL
EKVX = test system: EKVX
NCI-H23 = test system: NCI-H23
OVCAR-8 = test system: OVCAR-8
A498 = test system: A498
IGROV-1 = test system: IGROV-1
HOP-92 = test system: HOP-92
HCT-15 = test system: HCT-15
HOP-18 = test system: HOP-18
XF498 = test system: XF498
SF-268 = test system: SF-268
U-251 = test system: U-251
SK-MEL-5 = test system: SK-MEL-5
UACC-62 = test system: UACC-62
RXF 631 = test system: RXF 631
CCRF-CEM = test system: CCRF-CEM
NCI-H460 = test system: NCI-H460
786-0 = test system: 786-0
DMS-114 = test system: DMS-114
RXF 393 = test system: RXF 393
DLD-1 = test system: DLD-1
SF-295 = test system: SF-295
HCT-116 = test system: HCT-116
CAKI-1 = test system: CAKI-1
SK-OV-3 = test system: SK-OV-3
K562 = test system: K562
RPMI-8226 = test system: RPMI-8226
HT-29 = test system: HT-29
KM-20L2 = test system: KM-20L2
DMS-273 = test system: DMS-273
SF-539 = test system: SF-539
ACHN = test system: ACHN
SNB-19 = test system: SNB-19
A549 = test system: A549
UO-31 = test system: UO-31
SNB-78 = test system: SNB-78
SNB-75 = test system: SNB-75
OVCAR-3 = test system: OVCAR-3
NCI-H226 = test system: NCI-H226
SR = test system: SR
UACC-257 = test system: UACC-257
SK-MEL-2 = test system: SK-MEL-2
KM12 = test system: KM12
OVCAR-5 = test system: OVCAR-5
HOP-62 = test system: HOP-62
Malme-3M = test system: Malme-3M
OVCAR-4 = test system: OVCAR-4

COc1ccc(/C=C/C(=O)c2c(-c3ccccc3)nn(C)c(=O)c2N2CCOCC2)cc1
GI50 (SW-620): > 100 µM (inactive) | GI50 (NCI-H522): > 100 µM (inactive) | GI50 (MOLT-4): 43.5 µM (inactive) | GI50 (COLO 205): > 100 µM (inactive) | GI50 (HL-60): 21.4 µM (inactive) | GI50 (LXFL 529): > 100 µM (inactive) | GI50 (SK-MEL-28): > 100 µM (inactive) | GI50 (LOX IMVI): 68.1 µM (inactive) | GI50 (M14): > 100 µM (inactive) | GI50 (TK-10): > 100 µM (inactive) | GI50 (SN12C): > 100 µM (inactive) | GI50 (M19-MEL): > 100 µM (inactive) | GI50 (EKVX): > 100 µM (inactive) | GI50 (NCI-H23): > 100 µM (inactive) | GI50 (OVCAR-8): > 100 µM (inactive) | GI50 (A498): > 100 µM (inactive) | GI50 (IGROV-1): > 100 µM (inactive) | GI50 (HOP-92): 6.92 µM (inactive) | GI50 (HCT-15): 65.9 µM | GI50 (HOP-18): > 100 µM (inactive) | GI50 (XF498): 0.0601 µM (active) | GI50 (SF-268): > 100 µM (inactive) | GI50 (U-251): > 100 µM (inactive) | GI50 (SK-MEL-5): 97.9 µM (inactive) | GI50 (UACC-62): > 100 µM (inactive) | GI50 (RXF 631): > 100 µM (inactive) | GI50 (CCRF-CEM): 63 µM (inactive) | GI50 (NCI-H460): > 100 µM (inactive) | GI50 (786-0): > 100 µM (inactive) | GI50 (DMS-114): > 100 µM (inactive) | GI50 (RXF 393): > 100 µM (inactive) | GI50 (DLD-1): > 100 µM (inactive) | GI50 (SF-295): > 100 µM (inactive) | GI50 (HCT-116): 54.2 µM (inactive) | GI50 (CAKI-1): > 100 µM (inactive) | GI50 (SK-OV-3): > 100 µM (inactive) | GI50 (K562): 40.5 µM (inactive) | GI50 (RPMI-8226): 38.5 µM (inactive) | GI50 (HT-29): > 100 µM (inactive) | GI50 (KM-20L2): 60.3 µM (inactive) | GI50 (DMS-273): > 100 µM (inactive) | GI50 (SF-539): > 100 µM (inactive) | GI50 (ACHN): > 100 µM (inactive) | GI50 (SNB-19): > 100 µM (inactive) | GI50 (A549): > 100 µM (inactive) | GI50 (UO-31): > 100 µM (inactive)

Cc1ccc(N2C(=O)/C(=C/c3ccc(N(CCC#N)CCC#N)cc3)N=C2COc2ccc(Cl)cc2Cl)cc1
GI50 (SW-620): > 100 µM (inactive) | GI50 (NCI-H522): > 100 µM (inactive) | GI50 (MOLT-4): > 100 µM (inactive) | GI50 (SNB-78): > 100 µM (inactive) | GI50 (SNB-75): > 100 µM (inactive) | GI50 (COLO 205): > 100 µM (inactive) | GI50 (HL-60): > 100 µM (inactive) | GI50 (LXFL 529): > 100 µM (inactive) | GI50 (SK-MEL-28): > 100 µM (inactive) | GI50 (OVCAR-3): > 100 µM (inactive) | GI50 (LOX IMVI): > 100 µM (inactive) | GI50 (M14): > 100 µM (inactive) | GI50 (NCI-H226): > 100 µM (inactive) | GI50 (TK-10): > 100 µM (inactive) | GI50 (SR): > 100 µM (inactive) | GI50 (SN12C): > 100 µM (inactive) | GI50 (EKVX): > 100 µM (inactive) | GI50 (NCI-H23): > 100 µM (inactive) | GI50 (OVCAR-8): > 100 µM (inactive) | GI50 (UACC-257): > 100 µM (inactive) | GI50 (IGROV-1): > 100 µM (inactive) | GI50 (SK-MEL-2): > 100 µM (inactive) | GI50 (KM12): > 100 µM (inactive) | GI50 (HCT-15): > 100 µM | GI50 (HOP-18): 33.8 µM (inactive) | GI50 (XF498): > 100 µM (inactive) | GI50 (SF-268): > 100 µM (inactive) | GI50 (U-251): > 100 µM (inactive) | GI50 (SK-MEL-5): > 100 µM (inactive) | GI50 (UACC-62): > 100 µM (inactive) | GI50 (RXF 631): > 100 µM (inactive) | GI50 (CCRF-CEM): > 100 µM (inactive) | GI50 (NCI-H460): > 100 µM (inactive) | GI50 (786-0): > 100 µM (inactive) | GI50 (DMS-114): > 100 µM (inactive) | GI50 (RXF 393): > 100 µM (inactive) | GI50 (DLD-1): > 100 µM (inactive) | GI50 (SF-295): > 100 µM (inactive) | GI50 (OVCAR-5): > 100 µM (inactive) | GI50 (HCT-116): > 100 µM (inactive) | GI50 (CAKI-1): > 100 µM (inactive) | GI50 (SK-OV-3): > 100 µM (inactive) | GI50 (K562): > 100 µM (inactive) | GI50 (HOP-62): > 100 µM (inactive) | GI50 (RPMI-8226): > 100 µM (inactive) | GI50 (HT-29): > 100 µM (inactive) | GI50 (KM-20L2): > 100 µM (inactive) | GI50 (Malme-3M): > 100 µM (inactive) | GI50 (OVCAR-4): > 100 µM (inactive) | GI50 (SF-539): > 100 µM (inactive) | GI50 (ACHN): > 100 µM (inactive) | GI50 (SNB-19): > 100 µM (inactive) | GI50 (A549): > 100 µM (inactive) | GI50 (UO-31): > 100 µM (inactive)
